Measured values published in article PMC8119466, “A screen of FDA-approved drugs identifies inhibitors of protein tyrosine phosphatase 4A3 (PTP4A3 or PRL-3)” (Scientific Reports, 2021).
Where a name gives a salt, the structure may show the parent alone. Read-outs that look alike come from different tables or passages of the source.

Columns and labels:
Format in all cases: biochemical
recombinant PRL-3 = target: T1, recombinant PRL-3 (Homo sapiens, UniProt O75365); experiment: In vitro phosphatase assay (DiFMUP hydrolysis), PRL-3
T1 construct: 6xHis (N, cleaved yes); made in house; host or cells: E. coli One Shot BL21 Star
T1 sequence (O75365 whole entry): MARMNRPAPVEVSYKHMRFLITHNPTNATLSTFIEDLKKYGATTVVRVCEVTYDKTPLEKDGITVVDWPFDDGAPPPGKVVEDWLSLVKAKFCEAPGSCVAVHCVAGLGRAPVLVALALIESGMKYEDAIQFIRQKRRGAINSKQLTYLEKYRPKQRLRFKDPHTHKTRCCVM

recombinant PRL-1 = target: T2, recombinant PRL-1 (Homo sapiens, UniProt Q93096); experiment: In vitro phosphatase assay (DiFMUP hydrolysis), PRL-1
T2 construct: 6xHis (N, cleaved yes); made in house; host or cells: E. coli One Shot BL21 Star
T2 sequence (Q93096 1-173): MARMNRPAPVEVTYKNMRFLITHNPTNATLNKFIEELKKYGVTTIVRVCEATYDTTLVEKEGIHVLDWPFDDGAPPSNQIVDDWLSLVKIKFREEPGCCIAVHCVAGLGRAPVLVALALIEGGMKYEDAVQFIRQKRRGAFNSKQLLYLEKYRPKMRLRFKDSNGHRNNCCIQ

recombinant PRL-2 = target: T3, recombinant PRL-2 (Homo sapiens, UniProt Q12974); experiment: In vitro phosphatase assay (DiFMUP hydrolysis), PRL-2;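 note: PRL-2 activity read as DiFMUP hydrolysis after 20 min at room temperature with drug, enzyme first pre-reduced at 4 °C for 20 min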
T3 construct: 6xHis (N, cleaved yes); made in house; host or cells: E. coli One Shot BL21 Star
T3 sequence (Q12974 1-167): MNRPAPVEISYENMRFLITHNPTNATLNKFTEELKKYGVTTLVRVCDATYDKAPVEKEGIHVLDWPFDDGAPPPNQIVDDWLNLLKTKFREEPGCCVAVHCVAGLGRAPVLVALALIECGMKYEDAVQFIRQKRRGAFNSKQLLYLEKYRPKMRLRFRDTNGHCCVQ

[1] = FDA-approved drug screen, compared to DMSO
[2] = FDA-approved drug screen, activity compared to DMSO
[3] = FDA-approved drug screen, compared to DMSO, listed as Eltrombopag

Compound | % Phosphatase Activity (compared to DMSO) PRL-3 (recombinant PRL-3; [1]) [%] | % Phosphatase Activity (compared to DMSO) PRL-1 (recombinant PRL-1; [1]) [%] | % Phosphatase Activity (compared to DMSO) PRL-2 (recombinant PRL-2; [1]) [%] | also measured
N#CC[C@H](C1CCCC1)n1cc(-c2ncnc3[nH]ccc23)cn1 [Ruxolitinib (INCB018424)] | 66 | 116 | 132 | 
C=C1C[C@@H]2[C@H](CC[C@]3(C)C(=O)CC[C@@H]23)[C@@]2(C)C=CC(=O)C=C12 [Exemestane] | 87 | 95 | 116 | 
C=C1c2cccc(O)c2C(=O)C2=C(O)[C@]3(O)C(=O)C(C(N)=O)=C(O)[C@@H](N(C)C)[C@@H]3[C@@H](O)[C@H]12 [Methacycline HCl] | 83 | 82 | 65 | 
CN(C)[C@@H](CCOc1cccc2ccccc12)c1ccccc1 [Dapoxetine HCl] | 111 | 99 | 109 | 
CC(O)C(=O)O.CN1CCN(c2ccc3nc(-c4c(N)c5c(F)cccc5[nH]c4=O)[nH]c3c2)CC1 [Dovitinib (TKI258) Lactate] | 85 | 86 | 70 | 
CC(=O)OCC(=O)[C@@]12N=C(C)O[C@@H]1C[C@H]1[C@@H]3CCC4=CC(=O)C=C[C@]4(C)[C@H]3[C@@H](O)C[C@@]12C [Deflazacort] | 103 | 90 | 102 | 
Cc1cc(-n2c(=O)[nH]c(=O)n(C)c2=O)ccc1Oc1ccc(SC(F)(F)F)cc1 [Toltrazuril] |  |  |  | % Phosphatase Activity (compared to DMSO) PRL-3 (recombinant PRL-3; [2]): 73%; % Phosphatase Activity (compared to DMSO) PRL-1 (recombinant PRL-1; [2]): 88%; % Phosphatase Activity (compared to DMSO) PRL-2 (recombinant PRL-2; [2]): 93%
C[C@]12CC[C@@H]3c4ccc(O)cc4CC[C@H]3[C@@H]1CC[C@@H]2O [Estradiol] | 84 | 92 | 113 | 
Nc1ccc(S(=O)(=O)Nc2ccccn2)cc1 [Sulfapyridine] |  |  |  | % Phosphatase Activity (compared to DMSO) PRL-3 (recombinant PRL-3; [2]): 84%; % Phosphatase Activity (compared to DMSO) PRL-1 (recombinant PRL-1; [2]): 106%; % Phosphatase Activity (compared to DMSO) PRL-2 (recombinant PRL-2; [2]): 113%
CC(C)COc1ccc(CNC(=O)N(Cc2ccc(F)cc2)C2CCN(C)CC2)cc1 [Pimavanserin] | 95 | 95 | 88 | 
NCCCCCC(=O)O [(6-)ε-Aminocaproic acid] | 75 | 110 | 115 | 
O=C(Nc1nc2cccc(-c3ccc(CN4CCS(=O)(=O)CC4)cc3)n2n1)C1CC1 [Filgotinib (GLPG0634)] | 92 | 102 | 81 | 
Nc1nc(=O)c2nc(CNc3ccc(C(=O)N[C@@H](CCC(=O)O)C(=O)O)cc3)cnc2[nH]1 [Folic acid] | 92 | 100 | 112 | 
O=C(O)/C=C/c1ccc(Cn2ccnc2)cc1 [Ozagrel] | 76 | 96 | 101 | 
CCC[C@H](NC(=O)[C@@H]1[C@H]2CCC[C@H]2CN1C(=O)[C@@H](NC(=O)[C@@H](NC(=O)c1cnccn1)C1CCCCC1)C(C)(C)C)C(=O)C(=O)NC1CC1 [Telaprevir (VX-950)] |  |  |  | % Phosphatase Activity (compared to DMSO) PRL-3 (recombinant PRL-3; [2]): 92%; % Phosphatase Activity (compared to DMSO) PRL-1 (recombinant PRL-1; [2]): 95%; % Phosphatase Activity (compared to DMSO) PRL-2 (recombinant PRL-2; [2]): 104%
CC1=C(CC(=O)O)c2cc(F)ccc2/C1=C\c1ccc([S+](C)[O-])cc1 (stereo not drawn) [Sulindac] |  |  |  | % Phosphatase Activity (compared to DMSO) PRL-3 (recombinant PRL-3; [2]): 85%; % Phosphatase Activity (compared to DMSO) PRL-1 (recombinant PRL-1; [2]): 83%; % Phosphatase Activity (compared to DMSO) PRL-2 (recombinant PRL-2; [2]): 96%

Compound | % Phosphatase Activity (compared to DMSO) PRL-3 (recombinant PRL-3; [1]) [%] | % Phosphatase Activity (compared to DMSO) PRL-1 (recombinant PRL-1; [1]) [%] | % Phosphatase Activity (compared to DMSO) PRL-2 (recombinant PRL-2; [1]) [%] | also measured
Cc1cnc(C(=O)O)c[n+]1[O-] [Acipimox] | 95 | 97 | 102 | 
Cc1cn[nH]c1 [Fomepizole] | 78 | 102 | 102 | 
C=C1/C(=C\C=C2/CCC[C@]3(C)[C@@H]([C@H](C)/C=C/[C@H](C)C(C)C)CC[C@@H]23)C[C@@H](O)C[C@@H]1O [Doxercalciferol] | 71 | 105 | 99 | 
CCCc1nn(C)c2c(=O)[nH]c(-c3cc(S(=O)(=O)N4CCN(C)CC4)ccc3OCC)nc12 [Sildenafil] |  |  |  | % Phosphatase Activity (compared to DMSO) PRL-3 (recombinant PRL-3; [2]): 99%; % Phosphatase Activity (compared to DMSO) PRL-1 (recombinant PRL-1; [2]): 75%; % Phosphatase Activity (compared to DMSO) PRL-2 (recombinant PRL-2; [2]): 72%
17-Hydroxyprogesterone | 86 | 86 | 77 | 
COC(=O)N[C@H](C(=O)N[C@@H](Cc1ccccc1)[C@@H](O)CN(Cc1ccc(-c2ccccn2)cc1)NC(=O)[C@@H](NC(=O)OC)C(C)(C)C)C(C)(C)C [Atazanavir] | 85 | 94 | 89 | 
Cl.Cl.O=C(O)COCCN1CCN(C(c2ccccc2)c2ccc(Cl)cc2)CC1 (stereo not drawn) [Cetirizine DiHCl] |  |  |  | % Phosphatase Activity (compared to DMSO) PRL-3 (recombinant PRL-3): 84%; % Phosphatase Activity (compared to DMSO) PRL-1 (recombinant PRL-1): 92%; % Phosphatase Activity (compared to DMSO) PRL-2 (recombinant PRL-2): 89%
N#CC(c1ccc(Cl)cc1)c1c(Cl)cc(-n2ncc(=O)[nH]c2=O)cc1Cl (stereo not drawn) [Diclazuril] | 80 | 79 | 112 | 
CC(C)NCC(O)c1cc(O)cc(O)c1 (stereo not drawn) [Metaproterenol Sulfate] | 95 | 98 | 112 | 
CNC(=O)c1ccc2cc([C@@]3(O)CCn4cncc43)ccc2c1 [TAK-700 (Orteronel)] |  |  |  | % Phosphatase Activity (compared to DMSO) PRL-3 (recombinant PRL-3; [2]): 87%; % Phosphatase Activity (compared to DMSO) PRL-1 (recombinant PRL-1; [2]): 128%; % Phosphatase Activity (compared to DMSO) PRL-2 (recombinant PRL-2; [2]): 107%
CC(C)(O/N=C(\C(=O)N[C@@H]1C(=O)N2C(C(=O)[O-])=C(C[n+]3ccccc3)CS[C@H]12)c1csc(N)n1)C(=O)O [Ceftazidime Pentahydrate] | 103 | 100 | 106 | 
CC1(C)OC(=O)NC1=O [5,5-Dimethyloxazolidine-2,4-dione] | 82 | 94 | 94 | 
CC1=NN(c2ccc(C)c(C)c2)C(=O)/C1=N\Nc1cccc(-c2cccc(C(=O)O)c2)c1O [Eltromobag, reference compound] |  |  |  | IC50 (recombinant PRL-3; 2.5 µM protein, DiFMUP at KM, read-out: Calculated IC50, PRL-3 phosphatase activity): 26 ± 11 µM; % Phosphatase Activity (compared to DMSO) PRL-3 (recombinant PRL-3; [3]): 66%; IC50 (recombinant PRL-1; 2.5 µM protein, DiFMUP at KM, read-out: Calculated IC50, PRL-1 phosphatase activity): 56 ± 10 µM; % Phosphatase Activity (compared to DMSO) PRL-1 (recombinant PRL-1; [3]): 57%; IC50 (recombinant PRL-2; 2.5 µM protein, DiFMUP at KM, read-out: Calculated IC50, PRL-2 phosphatase activity): > 100 µM; % Phosphatase Activity (compared to DMSO) PRL-2 (recombinant PRL-2; [3]): 68%
CC(C)(C)C(=O)C(Oc1ccc(Cl)cc1)n1ccnc1 (stereo not drawn) [Climbazole] | 73 | 87 | 94 | 
COC(=O)[C@H](c1ccccc1Cl)N1CCc2sccc2C1 [Clopidogrel] |  |  |  | % Phosphatase Activity (compared to DMSO) PRL-3 (recombinant PRL-3): 81%; % Phosphatase Activity (compared to DMSO) PRL-1 (recombinant PRL-1): 100%; % Phosphatase Activity (compared to DMSO) PRL-2 (recombinant PRL-2): 86%
Cc1c(Cl)cccc1Nc1ccccc1C(=O)O [Tolfenamic Acid] |  |  |  | % Phosphatase Activity (compared to DMSO) PRL-3 (recombinant PRL-3; [2]): 86%; % Phosphatase Activity (compared to DMSO) PRL-1 (recombinant PRL-1; [2]): 97%; % Phosphatase Activity (compared to DMSO) PRL-2 (recombinant PRL-2; [2]): 86%
